{
  "source": "patent US20220259279A1",
  "about": "“ALGINATE-BASED MICROCAPSULATION FOR THE DELIVERY OF ALPHA-CGRP IN CARDIOVASCULAR DISEASES” (University of South Carolina, priority 2019, published 2022)",
  "test_system": "rat H9C2 cells",
  "assay": "trypan-blue cell viability assay",
  "assay_type": "cell-based",
  "conditions": "1 μM and 5 μM, 7 days, vs control-untreated cells",
  "experimental": "Two different cardiac cell lines, rat H9C2 cells and mouse HL-1 cells, and two different assays, trypan-blue cell viability assay and calcium dye fluorescent based assay, were used to determine the cytotoxicity of prepared alginate-αCGRP microcapsules.\nTrypan-blue cell viability assay: Rat cardiac myoblast cell line, H9C2 cells, was cultured in complete culture medium containing Dulbecco's Modified Eagles' Medium (DMEM) supplemented with 10% fetal bovine serum (FBS), 4.5 gm/liter D-glucose, 1.5 gm/liter sodium bicarbonate, and antibiotic solution of 100 unit/ml penicillin and 100 μg/ml streptomycin. […] The viability of H9C2 cells in presence or absence of alginate-αCGRP microcapsules was determined by trypan blue assay. […] After 7 days of treatment, cells were trypsinized and counted by hemocytometer using trypan-blue exclusion method (Sigma) according to manufacturer's instructions. […]\nTrypan-blue cell viability assay: The rat cardiac H9C2 cells were grown at 37° C. in a humidified incubator with 5% CO2 in complete culture medium (containing DMEM supplemented with 10% fetal bovine serum, FBS, 4.5 gm/liter D-glucose, and 1× penicillin/streptomycin). The viability of H9C2 cells in presence of alginate-α-CGRP microcapsules was determined by trypan-blue assay (Sigma). […] After 7 days of treatment, cells were trypsinized and counted by hemocytometer using trypan-blue exclusion method.",
  "data": [
    {"smiles": "CC(C)C[C@H](NC(=O)CNC(=O)[C@H](C)NC(=O)[C@H](CC(C)C)NC(=O)[C@H](CCCNC(=N)N)NC(=O)[C@H](Cc1c[nH]cn1)NC(=O)[C@@H](NC(=O)[C@@H](NC(=O)[C@@H]1CSSC[C@H](NC(=O)[C@@H](N)CO)C(=O)N[C@@H](CC(N)=O)C(=O)N[C@@H]([C@@H](C)O)C(=O)N[C@@H](C)C(=O)N[C@@H]([C@@H](C)O)C(=O)N1)C(C)C)[C@@H](C)O)C(=O)N[C@@H](CC(C)C)C(=O)N[C@@H](CO)C(=O)N[C@@H](CCCNC(=N)N)C(=O)N[C@@H](CO)C(=O)NCC(=O)NCC(=O)N[C@H](C(=O)N[C@H](C(=O)N[C@@H](CCCCN)C(=O)N[C@@H](CC(=O)O)C(=O)N[C@@H](CC(N)=O)C(=O)N[C@@H](Cc1ccccc1)C(=O)N[C@H](C(=O)N1CCC[C@H]1C(=O)N[C@H](C(=O)N[C@@H](CC(N)=O)C(=O)N[C@H](C(=O)NCC(=O)N[C@@H](CO)C(=O)N[C@@H](CCC(=O)O)C(=O)N[C@@H](C)C(=O)N[C@@H](Cc1ccccc1)C(N)=O)C(C)C)[C@@H](C)O)C(C)C)C(C)C)C(C)C", "note": "[α-CGRP-alone]", "values": [
      {"measurement": "viability of H9C2 cells (live cells, trypan blue)", "result": "not significantly different"}
    ]}
  ]
}
